According to PubChem BioAssay (NCI):
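Compound exposure: 48 hours, 5 concentrations, 96-well plates. At the GI50, growth is halved. TGI: total growth inhibition.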

Columns and labels:
Experiment in all cases: NCI-60 cell line screen, 48 h
SK-MEL-2 melanoma = tested on: SK-MEL-2 melanoma
SW-620 colon = tested on: SW-620 colon
BT-549 breast = tested on: BT-549 breast
MDA-MB-231 breast = tested on: MDA-MB-231 breast
HS 578T breast = tested on: HS 578T breast
EKVX NSCLC = tested on: EKVX NSCLC
NCI-H460 lung = tested on: NCI-H460 lung
NCI-H522 lung = tested on: NCI-H522 lung
SN12C renal = tested on: SN12C renal
UO-31 renal = tested on: UO-31 renal
OVCAR-5 ovarian = tested on: OVCAR-5 ovarian
786-0 renal = tested on: 786-0 renal
LOX IMVI melanoma = tested on: LOX IMVI melanoma
KM12 colon = tested on: KM12 colon
K-562 leukemia = tested on: K-562 leukemia
SF-295 CNS = tested on: SF-295 CNS
CAKI-1 renal = tested on: CAKI-1 renal
NCI-H226 lung = tested on: NCI-H226 lung
M14 melanoma = tested on: M14 melanoma
UACC-257 melanoma = tested on: UACC-257 melanoma
SNB-75 CNS = tested on: SNB-75 CNS
OVCAR-8 ovarian = tested on: OVCAR-8 ovarian
PC-3 prostate = tested on: PC-3 prostate
OVCAR-3 ovarian = tested on: OVCAR-3 ovarian
UACC-62 melanoma = tested on: UACC-62 melanoma
HOP-92 NSCLC = tested on: HOP-92 NSCLC
SR leukemia = tested on: SR leukemia
SF-268 CNS = tested on: SF-268 CNS
HCT-116 colon = tested on: HCT-116 colon
HOP-62 NSCLC = tested on: HOP-62 NSCLC
RXF 393 renal = tested on: RXF 393 renal
MCF7 breast = tested on: MCF7 breast
A498 renal = tested on: A498 renal
HL-60(TB) leukemia = tested on: HL-60(TB) leukemia
MALME-3M melanoma = tested on: MALME-3M melanoma
MDA-MB-435 = tested on: MDA-MB-435
DU-145 prostate = tested on: DU-145 prostate
HCC-2998 colon = tested on: HCC-2998 colon
RPMI-8226 leukemia = tested on: RPMI-8226 leukemia
OVCAR-4 ovarian = tested on: OVCAR-4 ovarian
NCI-H23 lung = tested on: NCI-H23 lung
SNB-19 CNS = tested on: SNB-19 CNS
U251 CNS = tested on: U251 CNS
HT29 colon = tested on: HT29 colon
A549 NSCLC = tested on: A549 NSCLC
SF-539 CNS = tested on: SF-539 CNS
SK-MEL-5 melanoma = tested on: SK-MEL-5 melanoma
HCT-15 colon = tested on: HCT-15 colon
NCI/ADR-RES ovarian = tested on: NCI/ADR-RES ovarian
SK-MEL-28 melanoma = tested on: SK-MEL-28 melanoma
ACHN renal = tested on: ACHN renal
IGROV1 ovarian = tested on: IGROV1 ovarian
COLO 205 colon = tested on: COLO 205 colon
TK-10 renal = tested on: TK-10 renal
CCRF-CEM leukemia = tested on: CCRF-CEM leukemia
T-47D breast = tested on: T-47D breast

## Nn1c2c(c3ccccc3c1=O)C(=O)c1ccccc1-2
SK-MEL-2 melanoma
  GI50: > 50 µM
  TGI: > 50 µM
SW-620 colon
  GI50: > 50 µM
  TGI: > 50 µM
BT-549 breast
  GI50: > 50 µM
  TGI: > 50 µM
MDA-MB-231 breast
  GI50: > 50 µM
  TGI: > 50 µM
HS 578T breast
  GI50: 18.4 µM
  TGI: > 50 µM
EKVX NSCLC
  GI50: > 50 µM
  TGI: > 50 µM
NCI-H460 lung
  GI50: 40.5 µM
  TGI: > 50 µM
NCI-H522 lung
  GI50: 30.1 µM
  TGI: > 50 µM
SN12C renal
  GI50: > 50 µM
  TGI: > 50 µM
UO-31 renal
  GI50: > 50 µM
  TGI: > 50 µM
OVCAR-5 ovarian
  GI50: > 50 µM
  TGI: > 50 µM
786-0 renal
  GI50: 37.7 µM
  TGI: > 50 µM
LOX IMVI melanoma
  GI50: > 50 µM
  TGI: > 50 µM
KM12 colon
  GI50: > 50 µM
  TGI: > 50 µM
K-562 leukemia
  GI50: > 50 µM
  TGI: > 50 µM
SF-295 CNS
  GI50: 30.1 µM
  TGI: > 50 µM
CAKI-1 renal
  GI50: > 50 µM
  TGI: > 50 µM
NCI-H226 lung
  GI50: 48.3 µM
  TGI: > 50 µM
M14 melanoma
  GI50: > 50 µM
  TGI: > 50 µM
UACC-257 melanoma
  GI50: > 50 µM
  TGI: > 50 µM
SNB-75 CNS
  GI50: 11.6 µM
  TGI: 33.5 µM
OVCAR-8 ovarian
  GI50: 26.7 µM
  TGI: > 50 µM
PC-3 prostate
  GI50: > 50 µM
  TGI: > 50 µM
OVCAR-3 ovarian
  GI50: > 50 µM
  TGI: > 50 µM
UACC-62 melanoma
  GI50: > 50 µM
  TGI: > 50 µM
HOP-92 NSCLC
  GI50: > 50 µM
  TGI: > 50 µM
SR leukemia
  GI50: 31 µM
  TGI: > 50 µM
SF-268 CNS
  GI50: 15.7 µM
  TGI: > 50 µM
HCT-116 colon
  GI50: > 50 µM
  TGI: > 50 µM
HOP-62 NSCLC
  GI50: 24.5 µM
  TGI: > 50 µM
RXF 393 renal
  GI50: 15.7 µM
  TGI: > 50 µM
MCF7 breast
  GI50: 20 µM
  TGI: > 50 µM
A498 renal
  GI50: > 50 µM
  TGI: > 50 µM
HL-60(TB) leukemia
  GI50: > 50 µM
  TGI: > 50 µM
MALME-3M melanoma
  GI50: > 50 µM
  TGI: > 50 µM
MDA-MB-435
  GI50: > 50 µM
  TGI: > 50 µM
DU-145 prostate
  GI50: > 50 µM
  TGI: > 50 µM
HCC-2998 colon
  GI50: > 50 µM
  TGI: > 50 µM
RPMI-8226 leukemia
  GI50: > 50 µM
  TGI: > 50 µM
OVCAR-4 ovarian
  GI50: > 50 µM
  TGI: > 50 µM
NCI-H23 lung
  GI50: > 50 µM
  TGI: > 50 µM
SNB-19 CNS
  GI50: 20.9 µM
  TGI: > 50 µM
U251 CNS
  GI50: 20.5 µM
  TGI: > 50 µM
HT29 colon
  GI50: > 50 µM
  TGI: > 50 µM
A549 NSCLC
  GI50: > 50 µM
  TGI: > 50 µM
SF-539 CNS
  GI50: 27.9 µM
  TGI: > 50 µM
SK-MEL-5 melanoma
  GI50: > 50 µM
  TGI: > 50 µM
HCT-15 colon
  GI50: > 50 µM
  TGI: > 50 µM
NCI/ADR-RES ovarian
  GI50: > 50 µM
  TGI: > 50 µM
SK-MEL-28 melanoma
  GI50: > 50 µM
  TGI: > 50 µM
ACHN renal
  GI50: > 50 µM
  TGI: > 50 µM
IGROV1 ovarian
  GI50: > 50 µM
  TGI: > 50 µM
COLO 205 colon
  GI50: > 50 µM
  TGI: > 50 µM
TK-10 renal
  GI50: 18.1 µM
  TGI: > 50 µM
CCRF-CEM leukemia
  GI50: > 50 µM
  TGI: > 50 µM
T-47D breast
  GI50: > 50 µM
  TGI: > 50 µM
